Legend:
Type in all cases: in vivo
[1] = test system: ryegrass, Italian (Italian ryegrass, Lolium multiflorum); assay: Test A greenhouse herbicide test, pre- and postemergence
Procedure, shortened: (§1)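 Seeds sown in loam–sand blend got a preemergence directed soil spray of compound in non-phytotoxic solvent with surfactant. Postemergence treatment was given at 2–10 cm, one- to two-leaf stage. After ~10 d in greenhouse, injury was rated visually vs untreated controls, 0 (no effect) to 100 (complete control).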

[2] = test system: kochia (Kochia scoparia); assay: as above
Procedure, shortened: as §1

[3] = test system: ragweed (common ragweed, Ambrosia elatior); assay: as above
Procedure, shortened: as §1

[4] = test system: corn (Zea mays); assay: as above; settings: Postemergence; for Corn plant response rating: 0 is no effect, 100 is complete control
Procedure, shortened: as §1

[5] = test system: barnyardgrass (Echinochloa crus-galli); assay: as above
Procedure, shortened: as §1

[6] = test system: pigweed (Amaranthus retroflexus); assay: as above
Procedure, shortened: as §1

[7] = test system: foxtail, giant (giant foxtail, Setaria faberii); assay: as above
Procedure, shortened: as §1

[8] = test system: wheat (Triticum aestivum); assay: as above; settings: Postemergence; for Wheat plant response rating: 0 is no effect, 100 is complete control
Procedure, shortened: as §1

[9] = test system: ducksalad (Heteranthera limosa); assay: Test B flooded paddy test; settings: 250 g ai/ha, Flood; visual rating on scale of 0 to 100 where 0 is no effect and 100 is complete control; 13 to 15 d after treatment
Procedure, shortened: (§2)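 Plants at the 2-leaf stage were flooded to 3 cm above soil, and test compounds were applied directly into the paddy water, which was held at that depth throughout. After 13 to 15 d in a greenhouse, injury was rated visually against untreated controls on a 0–100 scale (0 no effect, 100 complete control).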

[10] = test system: sedge, umbrella (small-flower umbrella sedge, Cyperus difformis); assay: Test B flooded paddy test; settings: 250 g ai/ha, Flood; visual rating on scale of 0 to 100 where 0 is no effect and 100 is complete control; 13 to 15 d after treatment
Procedure, shortened: as §2

[11] = test system: barnyardgrass (Echinochloa crus-galli); assay: Test B flooded paddy test; settings: 250 g ai/ha, Flood; visual rating on scale of 0 to 100 where 0 is no effect and 100 is complete control; 13 to 15 d after treatment
Procedure, shortened: as §2

[12] = test system: rice (Oryza sativa); assay: Test B flooded paddy test; settings: 250 g ai/ha, Flood; visual rating on scale of 0 to 100 where 0 is no effect and 100 is complete control; 13 to 15 d after treatment
Procedure, shortened: as §2

[13] = test system: blackgrass (Alopecurus myosuroides); assay: Test A greenhouse herbicide test, postemergence; settings: for Blackgrass plant response rating: 0 is no effect, 100 is complete control
Procedure, shortened: (§3)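 Plants grown in loam soil/sand blend pots were treated postemergence at 2 to 10 cm height, one- to two-leaf stage, with formulated test chemicals. After approximately 10 d in a greenhouse, injury was rated visually against untreated controls on a 0 to 100 scale (0 no effect, 100 complete control).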

[14] = test system: galium (catchweed bedstraw, Galium aparine); assay: Test A greenhouse herbicide test, postemergence; settings: for Galium plant response rating: 0 is no effect, 100 is complete control
Procedure, shortened: as §3

[15] = Postemergence, 125 g ai/ha, 0 to 100 scale where 0 is no effect and 100 is complete control
[16] = Postemergence, 500 g ai/ha, 0 to 100 scale, 0 is no effect, 100 is complete control
[17] = Preemergence, 125 g ai/ha, 0 to 100 scale where 0 is no effect and 100 is complete control
[18] = Preemergence, 500 g ai/ha, 0 to 100 scale where 0 is no effect and 100 is complete control
[19] = 125 g ai/ha, 0 to 100 scale where 0 is no effect and 100 is complete control
[20] = Postemergence, 125 g ai/ha, 0 to 100 scale, 0 no effect, 100 complete control
[21] = Postemergence, 500 g ai/ha, visual rating after approx. 10 d, 0 to 100 scale (0 no effect, 100 complete control)
[22] = Preemergence, 125 g ai/ha, visual injury rating, 0 to 100 scale (0 no effect, 100 complete control), approx. 10 d
[23] = 125 g ai/ha, 0 to 100 scale, 0 no effect, 100 complete control
[24] = 500 g ai/ha, visual rating after approx. 10 d, 0 to 100 scale (0 no effect, 100 complete control)
[25] = Preemergence, 500 g ai/ha, 0 to 100 scale, 0 no effect, 100 complete control

SMILES: Cc1nn(C)c(=O)c(-c2cccc3ccc(OC(F)F)cc23)c1O [Compound 93]
- Plant response rating, Ryegrass, Italian [1, 15]: 40
- Ryegrass, Italian plant response rating [1, 16]: 90
- Ryegrass, Italian plant response rating [1, 17]: 20
- Plant response rating, Ryegrass, Italian [1, 18]: 40
- Plant response rating, Kochia [2, 15]: 20
- Kochia plant response rating [2, 16]: 30
- Kochia plant response rating [2, 17]: 0
- Plant response rating, Kochia [2, 18]: 30
- Plant response rating, Ragweed [3, 15]: 0
- Ragweed plant response rating [3, 16]: 50
- Ragweed plant response rating [3, 17]: 0
- Plant response rating, Ragweed [3, 18]: 20
- Plant response rating, Corn [4, 19]: 0
- Corn plant response rating ([4]; 500 g ai/ha, 0 to 100 scale): 30
- Plant response rating, Barnyardgrass [5, 15]: 0
- Barnyardgrass plant response rating [5, 16]: 20
- Barnyardgrass plant response rating [5, 17]: 0
- Plant response rating, Barnyardgrass [5, 18]: 0
- Plant response rating, Pigweed [6, 15]: 30
- Pigweed plant response rating [6, 16]: 60
- Pigweed plant response rating [6, 17]: 20
- Plant response rating, Pigweed [6, 18]: 90
- Plant response rating, Foxtail, Giant [7, 15]: 0
- Foxtail, Giant plant response rating [7, 16]: 10
- Foxtail, Giant plant response rating [7, 17]: 0
- Plant response rating, Foxtail, Giant [7, 18]: 0
- Plant response rating, Wheat [8, 19]: 0
- Wheat plant response rating ([8]; 500 g ai/ha, 0 to 100 scale): 20
- Plant response rating, Ducksalad [9]: 0
- Plant response rating, Sedge, Umbrella [10]: 50
- Plant response rating, Barnyardgrass [11]: 0
- Plant response rating, Rice [12]: 0
- Plant response rating, Blackgrass [13, 19]: 0
- Blackgrass plant response rating ([13]; 500 g ai/ha, 0 to 100 scale): 0
- Plant response rating, Galium [14, 19]: 70
- Galium plant response rating ([14]; 500 g ai/ha, 0 to 100 scale): 90

SMILES: Cc1nn(Cc2ccccc2)c(=O)c(-c2cccc3ccccc23)c1O [Compound 168]
- Plant response rating, Ryegrass, Italian [1, 20]: 60
- Plant response rating, Ryegrass, Italian [1, 21]: 60
- Plant response rating, Ryegrass, Italian [1, 22]: 0
- Plant response rating, Ryegrass, Italian [1, 18]: 40
- Plant response rating, Kochia [2, 20]: 20
- Plant response rating, Kochia [2, 21]: 20
- Plant response rating, Kochia [2, 22]: 0
- Plant response rating, Kochia [2, 18]: 0
- Plant response rating, Ragweed [3, 20]: 0
- Plant response rating, Ragweed [3, 21]: 0
- Plant response rating, Ragweed [3, 22]: 0
- Plant response rating, Ragweed [3, 18]: 0
- Plant response rating, Corn [4, 23]: 0
- Plant response rating, Corn [4, 24]: 20
- Plant response rating, Barnyardgrass [5, 20]: 0
- Plant response rating, Barnyardgrass [5, 21]: 40
- Plant response rating, Barnyardgrass [5, 22]: 0
- Plant response rating, Barnyardgrass [5, 18]: 20
- Plant response rating, Pigweed [6, 20]: 0
- Plant response rating, Pigweed [6, 21]: 40
- Plant response rating, Pigweed [6, 22]: 0
- Plant response rating, Pigweed [6, 18]: 0
- Plant response rating, Foxtail, Giant [7, 20]: 30
- Plant response rating, Foxtail, Giant [7, 21]: 40
- Plant response rating, Foxtail, Giant [7, 22]: 0
- Plant response rating, Foxtail, Giant [7, 18]: 40
- Plant response rating, Wheat [8, 23]: 0
- Plant response rating, Wheat [8, 24]: 20
- Plant response rating, Ducksalad [9]: 40
- Plant response rating, Sedge, Umbrella [10]: 0
- Plant response rating, Barnyardgrass [11]: 0
- Plant response rating, Rice [12]: 0
- Plant response rating, Blackgrass [13, 23]: 20
- Plant response rating, Blackgrass [13, 24]: 30
- Plant response rating, Galium [14, 23]: 0
- Plant response rating, Galium [14, 24]: 30

SMILES: Cc1n[nH]c(=O)c(-c2cccc3ccccc23)c1OCC(F)F [Compound 173]
- Plant response rating, Ryegrass, Italian [1, 20]: 0
- Plant response rating, Ryegrass, Italian [1, 21]: 0
- Plant response rating, Ryegrass, Italian [1, 22]: 0
- Plant response rating, Ryegrass, Italian [1, 18]: 0
- Plant response rating, Kochia [2, 20]: 0
- Plant response rating, Kochia [2, 21]: 0
- Plant response rating, Kochia [2, 22]: 0
- Plant response rating, Kochia [2, 18]: 0
- Plant response rating, Ragweed [3, 20]: 0
- Plant response rating, Ragweed [3, 21]: 0
- Plant response rating, Ragweed [3, 22]: 0
- Plant response rating, Ragweed [3, 18]: 0
- Plant response rating, Corn [4, 23]: 0
- Plant response rating, Corn [4, 24]: 0
- Plant response rating, Barnyardgrass [5, 20]: 0
- Plant response rating, Barnyardgrass [5, 21]: 0
- Plant response rating, Barnyardgrass [5, 22]: 0
- Plant response rating, Barnyardgrass [5, 18]: 0
- Plant response rating, Pigweed [6, 20]: 0
- Plant response rating, Pigweed [6, 21]: 0
- Plant response rating, Pigweed [6, 22]: 0
- Plant response rating, Pigweed [6, 18]: 0
- Plant response rating, Foxtail, Giant [7, 20]: 0
- Plant response rating, Foxtail, Giant [7, 21]: 0
- Plant response rating, Foxtail, Giant [7, 22]: 0
- Plant response rating, Foxtail, Giant [7, 18]: 0
- Plant response rating, Wheat [8, 23]: 0
- Plant response rating, Wheat [8, 24]: 0
- Plant response rating, Ducksalad [9]: 0
- Plant response rating, Sedge, Umbrella [10]: 0
- Plant response rating, Barnyardgrass [11]: 0
- Plant response rating, Rice [12]: 0
- Plant response rating, Blackgrass [13, 23]: 0
- Plant response rating, Blackgrass [13, 24]: 0
- Plant response rating, Galium [14, 23]: 0
- Plant response rating, Galium [14, 24]: 0

SMILES: Cc1sc2ccccc2c1-c1c(O)cnn(C)c1=O [Compound 48]
- Plant response rating, Ryegrass, Italian [1, 15]: 50
- Ryegrass, Italian plant response rating [1, 16]: 60
- Ryegrass, Italian plant response rating [1, 17]: 20
- Plant response rating, Ryegrass, Italian [1, 25]: 60
- Plant response rating, Kochia [2, 15]: 70
- Kochia plant response rating [2, 16]: 80
- Kochia plant response rating [2, 17]: 0
- Plant response rating, Kochia [2, 25]: 10
- Plant response rating, Ragweed [3, 15]: 0
- Ragweed plant response rating [3, 16]: 20
- Ragweed plant response rating [3, 17]: 10
- Plant response rating, Ragweed [3, 25]: 60
- Plant response rating, Corn [4, 19]: 0
- Corn plant response rating ([4]; 500 g ai/ha, 0 to 100 scale): 0
- Plant response rating, Barnyardgrass [5, 15]: 10
- Barnyardgrass plant response rating [5, 16]: 50
- Barnyardgrass plant response rating [5, 17]: 0
- Plant response rating, Barnyardgrass [5, 25]: 0
- Plant response rating, Pigweed [6, 15]: 60
- Pigweed plant response rating [6, 16]: 70
- Pigweed plant response rating [6, 17]: 30
- Plant response rating, Pigweed [6, 25]: 30
- Plant response rating, Foxtail, Giant [7, 15]: 50
- Foxtail, Giant plant response rating [7, 16]: 60
- Foxtail, Giant plant response rating [7, 17]: 0
- Plant response rating, Foxtail, Giant [7, 25]: 10
- Plant response rating, Wheat [8, 19]: 0
- Wheat plant response rating ([8]; 500 g ai/ha, 0 to 100 scale): 0
- Plant response rating, Ducksalad [9]: 0
- Plant response rating, Sedge, Umbrella [10]: 0
- Plant response rating, Barnyardgrass [11]: 0
- Plant response rating, Rice [12]: 0
- Plant response rating, Blackgrass [13, 19]: 0
- Blackgrass plant response rating ([13]; 500 g ai/ha, 0 to 100 scale): 30
- Plant response rating, Galium [14, 19]: 90
- Galium plant response rating ([14]; 500 g ai/ha, 0 to 100 scale): 90

SMILES: CCc1nn(C)c(=O)c(-c2c(C)oc3ccc(C)cc23)c1O [Compound 118]
- Plant response rating, Ryegrass, Italian [1, 15]: 0
- Plant response rating, Ryegrass, Italian [1, 21]: 0
- Ryegrass, Italian plant response rating [1, 17]: 0
- Plant response rating, Ryegrass, Italian [1, 18]: 0
- Plant response rating, Kochia [2, 15]: 0
- Plant response rating, Kochia [2, 21]: 0
- Kochia plant response rating [2, 17]: 0
- Plant response rating, Kochia [2, 18]: 0
- Plant response rating, Ragweed [3, 15]: 0
- Plant response rating, Ragweed [3, 21]: 0
- Ragweed plant response rating [3, 17]: 0
- Plant response rating, Ragweed [3, 18]: 0
- Plant response rating, Corn [4, 19]: 0
- Plant response rating, Corn [4, 24]: 0
- Plant response rating, Barnyardgrass [5, 15]: 0
- Plant response rating, Barnyardgrass [5, 21]: 0
- Barnyardgrass plant response rating [5, 17]: 0
- Plant response rating, Barnyardgrass [5, 18]: 30
- Plant response rating, Pigweed [6, 15]: 0
- Plant response rating, Pigweed [6, 21]: 0
- Pigweed plant response rating [6, 17]: 0
- Plant response rating, Pigweed [6, 18]: 10
- Plant response rating, Foxtail, Giant [7, 15]: 0
- Plant response rating, Foxtail, Giant [7, 21]: 0
- Foxtail, Giant plant response rating [7, 17]: 0
- Plant response rating, Foxtail, Giant [7, 18]: 20
- Plant response rating, Wheat [8, 19]: 0
- Plant response rating, Wheat [8, 24]: 0
- Plant response rating, Ducksalad [9]: 0
- Plant response rating, Sedge, Umbrella [10]: 0
- Plant response rating, Barnyardgrass [11]: 0
- Plant response rating, Rice [12]: 0
- Plant response rating, Blackgrass [13, 19]: 0
- Plant response rating, Blackgrass [13, 24]: 0
- Plant response rating, Galium [14, 19]: 0
- Plant response rating, Galium [14, 24]: 0
